Assay results: patent US20080176889A1, “9-anilinoacridine alkylating agents” (priority 2004, published 2008)
Like-named read-outs stand apart in the source and are kept apart here.

Legend:
[1] = tested on: human lymphoblastic leukemic cells (CCRF-CEM); experiment: XTT-tetrazolium cytotoxicity assay, CCRF-CEM; format: cell-based; conditions: for IC50: Homo sapiens, 72 h
Description: (§1) The effects of the compounds on cell growth were determined in all human tumor cells (i.e. T-cell acute lymphocytic leukemia CCRF-CEM), in a 72 h incubation, by XTT-tetrazolium assay, as described by Scudiero et al., Cancer Res. 1988, 48, 4827-4833. After the addition of phenazine methosulfate-XTT solution at 37° C. for 6 h, absorbance at 450 and 630 nm was detected on a microplate reader (EL 340; Bio-Tek Instruments Inc., Winooski, Vt.). Six to seven concentrations of each compound were used. The IC50 and dose-effect relationships of the compounds for antitumor activity were calculated by a median-effect plot (see, e.g., Chou et al. Adv. Enzyme Regul. 1984, 22, 27-55) using a computer program on an IBM-PC workstation (see, e.g., Chou et al. Dose-Effect Analysis with Microcomputers: Quantitation of ED50, LD50, Synergism, Antagonism, Low-Dose Risk, Receptor-Ligands Binding and Enzyme Kinetics; Biosoft: Cambridge, U.K., 1987).

CCRF-CEM/VBL = experiment: XTT cytotoxicity assay, vinblastine-resistant subline; format: cell-based, human
Description: as §1
(§2) Data summarizing the growth inhibition of human lymphoblastic leukemic cells (CCRF-CEM) and its drug-resistant sublines (resistant to vinblastine and taxol, CCRF-CEM/VBL and CCRF-CEM/taxol, respectively) by compound 37 is shown in Table 4.

CCRF-CEM/Taxol = experiment: XTT cytotoxicity assay, taxol-resistant subline; format: cell-based, human
Description: as §1, §2

A549 = experiment: SRB cytotoxicity assay, solid tumor cells A549; format: cell-based, human; conditions: for IC50: Homo sapiens, A549, SRB
HCT-116 = experiment: SRB cytotoxicity assay, solid tumor cells HCT-116; format: cell-based; conditions: Homo sapiens, HCT-116, 72 h, read-out: IC50 HCT-116
[2] = tested on: human mammary carcinoma (MX-1) xenografts; experiment: MX-1 xenograft in nude mice; format: in vivo; conditions: for Average Body Weight: D11 (start of treatment, baseline weight)
Description: (§3) Athymic nude mice bearing the nu/nu gene were used for human breast tumor MX-1 xenograft. Outbred Swiss-background mice were obtained from Charies River Breeding Laboratories. Male mice 8 weeks old or older weighing 22 g or more were used for most experiments. Drug was administrated via the tail vein by i.v. injection. Tumor volumes were assessed by measuring length×width×height (or width) by using caliper. Vehicle used was 20 μl DMSO in 180 μl saline. All animal studies were conducted in accordance with the guidelines of the National Institutes of Health Guide for the Care and Use of Animals and the protocol approved by the Memorial Sloan-Kettering Cancer Center's Institutional Animal Care and Use Committee.

[3] = tested on: human T-cell lymphoblastic leukemic lymphoma xenografts (CCRF-CEM); experiment: CCRF-CEM xenograft in nude mice; format: in vivo
Description: as §3
Table 6 summarizes data related to the therapeutic effects and toxicity of compound 37 in nude mice bearing human T-cell leukemic lymphoma CCRF-CEM xenografts. About 70% of average tumor sized was reduced at the dose of 2 mg/kg (Q3D×5).

Topo II = experiment: Topo II-mediated relaxation of pRYG-DNA; format: biochemical
DNA = DNA binding observed in the Topo II relaxation comparison; conditions: seen in Topo II relaxation comparison
[4] = number in bracket, ratio of IC50's
[5] = 3 mg/kg Q4Dx5 i.v., column D17, marked (D15)
[6] = 3 mg/kg Q4Dx5 i.v., column D20, marked (D19)

What does the source list for `OCc1cc(Nc2c3ccccc3nc3ccccc23)cc(OCCN(CCCl)CCCl)c1` [Compound 37, (3-(Acridin-9-ylamino)-5-{2-[bis(2-chloroethyl)amino]ethoxy}phenyl)methanol]?
cytotoxicity relative to AHMA [1]: about 79 fold; IC50 [1]: 7 nM; IC50 ([1]; read-out: IC50 CCRF-CEM): 9.5 ± 2.5 nM; cross-resistance to vinblastine (CCRF-CEM/VBL; CCRF-CEM/VBL vs CCRF-CEM): does not develop cross-resistance; IC50 (CCRF-CEM/VBL; Homo sapiens, CCRF-CEM, 72 h, read-out: IC50 CCRF-CEM/VBL): 7.5 nM; folds of resistance CCRF-CEM/VBL vs CCRF-CEM parent cells (CCRF-CEM/VBL; [4]): 0.53 ×; cross-resistance to taxol (CCRF-CEM/Taxol; CCRF-CEM/taxol vs CCRF-CEM): does not develop cross-resistance; IC50 (CCRF-CEM/Taxol; Homo sapiens, CCRF-CEM, 72 h, read-out: IC50 CCRF-CEM/Taxol): 34 ± 13 nM; folds of resistance CCRF-CEM/Taxol vs CCRF-CEM parent cells (CCRF-CEM/Taxol; [4]): 1.3 ×; IC50 (A549; 72 hours incubation, read-out: IC50 A549): 5.6 ± 1.2 nM; IC50 (A549; incubation for 3 hours, washed, then incubated for a total of 72 hours (footnote b), read-out: IC50 A549 after washing): 5 nM; alteration of potency when drug washed away (A549; washed away after incubation for 24 h): no alteration of the potency; IC50 (HCT-116): 5.5 ± 1 nM; Average Body Weight ([2]; 3 mg/kg Q4Dx5 i.v.): 30.1 gm; Average Body Weight Change ([2]; 3 mg/kg Q4Dx5 i.v., D14): −3.5 gm; Average Body Weight Change ([2]; 3 mg/kg Q4Dx5 i.v., D23): −7.2 gm; Average Tumor Size (T/C) ([2]; 3 mg/kg Q4Dx5 i.v., D23): 0.01; Tumor free ([2]; 3 mg/kg Q4Dx5 i.v., animals tumor free/total (D27, 28)): 2/3; Average Body Weight Change [2, 5]: −3.3 gm; Average Tumor Size (T/C) [2, 5]: 0.26; Average Body Weight Change [2, 6]: −4.7 gm; Average Tumor Size (T/C) [2, 6]: 0.03; Average Body Weight Change ([2]; 3 mg/kg Q4Dx5 i.v., column D26, marked (D27)): −8.8 gm; Toxicity (death) ([2]; 3 mg/kg Q4Dx5 i.v., deaths/total (D27, 28, 29)): 3/3; mice becoming tumor-free ([2]; 1-2 mg/kg (Q3DX7) or 3 mg/kg (Q4D×5), intravenous injection, n=3): 66.7%; Average Body Weight ([2]; 1-2 mg/kg Q3Dx7 i.v.): 28.3 gm; Average Body Weight Change ([2]; 1-2 mg/kg Q3Dx7 i.v., D14): +1.2 gm; Average Body Weight Change ([2]; 1-2 mg/kg Q3Dx7 i.v., D17): −1.4 gm; Average Tumor Size (T/C) ([2]; 1-2 mg/kg Q3Dx7 i.v., D17): 0.37; Average Body Weight Change ([2]; 1-2 mg/kg Q3Dx7 i.v., D20): −3.0 gm; Average Tumor Size (T/C) ([2]; 1-2 mg/kg Q3Dx7 i.v., D20): 0.17; Average Body Weight Change ([2]; 1-2 mg/kg Q3Dx7 i.v., D23): −3.0 gm; Average Tumor Size (T/C) ([2]; 1-2 mg/kg Q3Dx7 i.v., D23): 0.14; Average Body Weight Change ([2]; 1-2 mg/kg Q3Dx7 i.v., D26): −3.9 gm; Tumor free ([2]; 1-2 mg/kg Q3Dx7 i.v., animals tumor free/total (D32.32)): 2/3; Toxicity (death) ([2]; 1-2 mg/kg Q3Dx7 i.v., deaths/total): 0/3; average tumor size reduced ([3]; 2 mg/kg (Q3D×5)): About 70%; Average Body Weight ([3]; 2 mg/kg Q3Dx5 i.v., D10 (start of treatment, baseline weight)): 29.4 gm; Average Body Weight Change ([3]; 2 mg/kg Q3Dx5 i.v., D13): −1.1 gm; Average Body Weight Change ([3]; 2 mg/kg Q3Dx5 i.v., D16): −4.2 gm; Average Tumor Size (T/C) ([3]; 2 mg/kg Q3Dx5 i.v., D16): 0.47; Average Body Weight Change ([3]; 2 mg/kg Q3Dx5 i.v., D19): −3.3 gm; Average Tumor Size (T/C) ([3]; 2 mg/kg Q3Dx5 i.v., D19): 0.34; Average Body Weight Change ([3]; 2 mg/kg Q3Dx5 i.v., D22): −5.9 gm; Average Tumor Size (T/C) ([3]; 2 mg/kg Q3Dx5 i.v., D22): 0.33; Average Body Weight Change ([3]; 2 mg/kg Q3Dx5 i.v., D25): −6.8 gm; Average Tumor Size (T/C) ([3]; 2 mg/kg Q3Dx5 i.v., D25): 0.34; Tumor free ([3]; 2 mg/kg Q3Dx5 i.v., animals tumor free/total): 0/3; Toxicity (death) ([3]; 2 mg/kg Q3Dx5 i.v., deaths/total): 0/3; Topo II-mediated relaxation of pRYG-DNA (Topo II): inhibited DNA relaxation; binding to DNA (DNA): binds relatively tightly to DNA
